Source: patent US20250115600A1, “COVALENT MODIFIERS OF AKT1 AND USES THEREOF” (Terremoto Biosciences, Inc., priority 2022, published 2025)

How the values were obtained:
[1] = target: AKT1 E17K mutant protein (Homo sapiens (Human), UniProt P31749, E17K); assay: Intact mass spectrometry, covalent complex formation and ARQ-092 competition; type: binding; conditions: for covalent complex formation with AKT1 E17K mutant protein / covalent complex formation with AKT1 E17K mutant protein in presence of competitor: protein 1 μM, compound 1.5 μM, 2 hrs at 37° C., NaBH4 reduction; for covalent complex formation with AKT1 E17K mutant protein: absence of competitor; for covalent complex formation with AKT1 E17K mutant protein in presence of competitor: with ARQ092 (50 μM); for selectivity of complex formation, AKT1 E17K versus AKT1 WT: comparison of the spectra without competitor
Description: (§1) AKT1 WT or AKT1 E17K (1 μM) was treated with a compound from Table 1 (1.5 μM) for 2 hrs at 37° C., with and without ARQ092 (50 μM) competitor as a specificity control. Reversible imines were captured by reductive amination with 5 mM NaBH4 for 5 min. Reduction reactions were quenched by diluting the sample in equal volume acetonitrile+1% TFA, then analyzed by LCMS.
(§2) FIGS. 1 to 25 provide intact mass spectra for AKT1 WT protein and AKT1 E17K mutant protein after incubation with compounds of the present disclosure and subsequent borohydride reduction. […] Further, FIGS. 1 to 10, 12, and 14 to 25 each provide intact mass spectra following the incubation of an AKT1 protein with a compound of the present disclosure both in the absence of a competitor molecule (i.e., ARQ-092, a molecule known to bind to and inhibit the function of AKT1); and in the presence of a significant stoichiometric excess of a competitor molecule.

[2] = target: T1, AKT1 WT (Homo sapiens (Human), UniProt P31749); assay: as above; type: binding; conditions: protein 1 μM, compound 1.5 μM, 2 hrs at 37° C., NaBH4 reduction; for covalent complex formation with AKT1 WT protein: absence of competitor; for covalent complex formation with AKT1 WT protein in presence of competitor: with ARQ092 (50 μM)
Description: as §1, §2
Target sequence in this assay (P31749 2-480): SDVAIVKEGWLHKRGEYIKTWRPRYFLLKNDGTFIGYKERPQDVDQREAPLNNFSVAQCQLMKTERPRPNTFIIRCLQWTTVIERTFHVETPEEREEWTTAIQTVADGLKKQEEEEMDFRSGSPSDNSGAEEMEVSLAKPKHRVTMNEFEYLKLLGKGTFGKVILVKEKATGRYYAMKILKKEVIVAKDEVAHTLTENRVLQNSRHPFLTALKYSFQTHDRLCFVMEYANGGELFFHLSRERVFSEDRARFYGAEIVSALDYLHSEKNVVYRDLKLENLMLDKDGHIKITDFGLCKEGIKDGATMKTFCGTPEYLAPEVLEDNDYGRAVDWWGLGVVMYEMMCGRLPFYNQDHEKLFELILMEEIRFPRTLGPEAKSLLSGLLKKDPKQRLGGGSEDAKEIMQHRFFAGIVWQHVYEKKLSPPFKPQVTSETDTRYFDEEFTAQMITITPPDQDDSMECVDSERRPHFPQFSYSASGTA

[3] = target: AKT1 E17K (Homo sapiens (Human), UniProt P31749, E17K); assay: Live cell target engagement (NanoBRET) in HEK293 cells; type: cell-based; conditions: for IC50: HEK293, 2 hours at 37° C.
[4] = target: T1, AKT1 WT; assay: as above; type: cell-based; conditions: HEK293, 2 hours at 37° C.
Target sequence in this assay (P31749 whole entry): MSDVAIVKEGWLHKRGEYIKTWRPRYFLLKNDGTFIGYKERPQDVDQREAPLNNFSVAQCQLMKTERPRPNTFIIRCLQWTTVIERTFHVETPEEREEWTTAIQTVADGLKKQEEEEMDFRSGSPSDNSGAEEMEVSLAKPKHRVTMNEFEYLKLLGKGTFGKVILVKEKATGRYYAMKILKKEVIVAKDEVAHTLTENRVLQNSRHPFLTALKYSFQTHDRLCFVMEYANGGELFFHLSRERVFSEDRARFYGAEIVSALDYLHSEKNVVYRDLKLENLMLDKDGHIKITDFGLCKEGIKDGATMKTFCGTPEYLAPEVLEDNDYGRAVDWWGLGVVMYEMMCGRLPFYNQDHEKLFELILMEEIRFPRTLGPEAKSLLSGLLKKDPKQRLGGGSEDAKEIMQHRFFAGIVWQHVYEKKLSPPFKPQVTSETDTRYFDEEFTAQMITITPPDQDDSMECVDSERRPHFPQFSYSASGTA

[5] = target: AKT2 (Homo sapiens (Human), UniProt P31751); assay: as above; type: cell-based; conditions: HEK293, 2 hours at 37° C.
AKT2, sequence (P31751 whole entry): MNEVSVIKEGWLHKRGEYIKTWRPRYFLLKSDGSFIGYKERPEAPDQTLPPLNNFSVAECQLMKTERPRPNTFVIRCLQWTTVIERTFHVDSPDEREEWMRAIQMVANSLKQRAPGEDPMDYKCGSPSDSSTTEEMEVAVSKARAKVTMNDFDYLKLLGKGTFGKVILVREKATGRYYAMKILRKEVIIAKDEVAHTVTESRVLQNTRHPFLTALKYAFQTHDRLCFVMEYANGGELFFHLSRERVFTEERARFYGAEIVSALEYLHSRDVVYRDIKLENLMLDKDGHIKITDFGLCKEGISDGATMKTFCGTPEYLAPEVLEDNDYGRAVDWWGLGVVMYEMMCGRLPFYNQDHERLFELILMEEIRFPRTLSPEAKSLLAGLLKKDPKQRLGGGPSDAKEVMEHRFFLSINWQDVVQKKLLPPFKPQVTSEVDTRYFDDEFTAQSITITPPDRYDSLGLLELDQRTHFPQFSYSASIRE

AKT1 E17K mutant protein, sequence (P31749 2-480 E17K): as the sequence (P31749 2-480) above, with E16K counted along it
AKT1 E17K, sequence (P31749 whole entry E17K): as the sequence (P31749 whole entry) above, with E17K counted along it

| Compound | AKT1 E17K IC50: Selectivity vs AKT1 WT [3] | AKT1 E17K IC50: Selectivity vs AKT2 [3] | IC50 [3] | IC50 [4] | IC50 [5] | covalent complex formation with AKT1 E17K mutant protein [1] | covalent complex formation with AKT1 E17K mutant protein in presence of competitor [1] | covalent complex formation with AKT1 WT protein [2] | covalent complex formation with AKT1 WT protein in presence of competitor [2] | selectivity of complex formation, AKT1 E17K versus AKT1 WT [1] |
| --- | --- | --- | --- | --- | --- | --- | --- | --- | --- | --- |
| Nc1ncccc1-c1nc2ccc(N3CCOCC3)nc2n1-c1ccc(CNC(=O)Cc2ccc(C=O)c(O)c2)cc1 [Compound 49, N-({4-[2-(2-aminopyridin-3-yl)-5-(morpholin-4-yl)imidazo[4,5-b]pyridin-3-yl]phenyl}methyl)-2-(4-formyl-3-hydroxyphenyl)acetamide] | 20 | 1500 | < 100 nM | < 100 nM | > 500 nM | significant presence of a covalent complex | Essentially little to no covalent complex formation | significant presence of covalent complex | Essentially no covalent complex formation |  |
| CC(=O)Nc1cc(CC(=O)NCc2ccc(-n3c(-c4cccnc4N)nc4cccnc43)cc2)ccc1C=O [Compound 91, 2-(3-acetamido-4-formylphenyl)-N-(4-(2-(2-aminopyridin-3-yl)-3H-imidazo[4,5-b]pyridin-3-yl)benzyl)acetamide] | 5 | 120 | < 100 nM | 100 to 500 nM | > 500 nM | presence of a covalent complex | Essentially no covalent complex formation | presence of a covalent complex | Essentially no covalent complex formation |  |
| CC(C)(O)c1ccc2nc(-c3cccnc3N)n(-c3ccc(CNC(=O)Cc4ccc(C=O)c(O)c4)cc3)c2n1 [Example 17, N-({4-[2-(2-aminopyridin-3-yl)-5-(2-hydroxypropan-2-yl)imidazo[4,5-b]pyridin-3-yl]phenyl}methyl)-2-(4-formyl-3-hydroxyphenyl)acetamide] | 10 | >110 | < 100 nM | > 500 nM | > 500 nM |  |  |  |  |  |
| CC1(c2ccc3nc(-c4cccnc4N)n(-c4ccc(CNC(=O)Cc5ccc(C=O)c(O)c5)cc4)c3n2)CC1 [Example 18, N-({4-[2-(2-aminopyridin-3-yl)-5-(1-methylcyclopropyl)imidazo[4,5-b]pyridin 3-yl]phenyl}methyl)-2-(4-formyl-3-hydroxyphenyl)acetamide] | 6.1 | 150 | < 100 nM | 100 to 500 nM | > 500 nM |  |  |  |  |  |
| Nc1ncccc1-c1nc2ccc(-c3cccc(N4CCOCC4)c3)nc2n1-c1ccc(CCNCc2ccc(C=O)c(O)c2)cc1 [Example 19, 4-(((4-(2-(2-aminopyridin-3-yl)-5-(3-morpholinophenyl)-3H-imidazo[4,5-b]pyridin-3-yl)phenethyl)amino)methyl)-2-hydroxybenzaldehyde] | 1.7 | 4.9 | < 100 nM | < 100 nM | < 100 nM |  |  |  |  |  |
| Nc1ncccc1-c1nc2ccc(C3CC3)nc2n1-c1ccc(CNC(=O)Cc2ccc(C=O)c(O)c2Cl)cc1 [Example 22, N-({4-[2-(2-aminopyridin-3-yl)-5-cyclopropylimidazo[4,5-b]pyridin-3-yl]phenyl}methyl)-2-(2-chloro-4-formyl-3-hydroxyphenyl)acetamide] | 3.1 | 190 | < 100 nM | < 100 nM | > 500 nM |  |  |  |  |  |

Continued, in another order:

| AKT1 E17K IC50: Selectivity vs AKT1 WT [3] | AKT1 E17K IC50: Selectivity vs AKT2 [3] | IC50 [3] | IC50 [4] | IC50 [5] | Compound | covalent complex formation with AKT1 E17K mutant protein [1] | covalent complex formation with AKT1 E17K mutant protein in presence of competitor [1] | covalent complex formation with AKT1 WT protein [2] | covalent complex formation with AKT1 WT protein in presence of competitor [2] | selectivity of complex formation, AKT1 E17K versus AKT1 WT [1] |
| --- | --- | --- | --- | --- | --- | --- | --- | --- | --- | --- |
| 1.2 | 11 | < 100 nM | < 100 nM | 100 to 500 nM | Nc1ncccc1-c1nc2ccc(-c3ccccc3)nc2n1-c1ccc(CNC(=O)c2cc(Cl)c(O)c(C=O)c2)cc1 [Compound 52, N-(4-(2-(2-aminopyridin-3-yl)-5-phenyl-3H-imidazo[4,5-b]pyridin-3-yl)benzyl)-3-chloro-5-formyl-4-hydroxybenzamide] | presence of a covalent complex | Essentially no covalent complex formation | only peaks corresponding to unmodified WT protein | only peaks corresponding to unmodified WT protein | selective for complex formation with AKT1 E17K |
| 2.7 | 48 | < 100 nM | < 100 nM | 100 to 500 nM | Nc1ncccc1-c1nc2ccc(-c3ccccc3)nc2n1-c1ccc(CNC(=O)c2cc(F)c(O)c(C=O)c2)cc1 [Compound 53, N-({4-[2-(2-aminopyridin-3-yl)-5-phenylimidazo[4,5-b]pyridin-3-yl]phenyl}methyl)-3-fluoro-5-formyl-4-hydroxybenzamide] | presence of a covalent complex | Essentially no covalent complex formation | only peaks corresponding to unmodified WT protein | only peaks corresponding to unmodified WT protein | selective for complex formation with AKT1 E17K |
| 93 | 490 | < 100 nM | > 500 nM | > 500 nM | Nc1ncccc1-c1nc2ccc(-c3ccccc3)nc2n1-c1ccc(CNC(=O)C2(c3cnc(C=O)c(O)c3)CC2)cc1 [Compound 56, N-({4-[2-(2-aminopyridin-3-yl)-5-phenylimidazo[4,5-b]pyridin-3-yl]phenyl}methyl)-1-(6-formyl-5-hydroxypyridin-3-yl)cyclopropane-1-carboxamide] | small presence of a covalent complex | Essentially no covalent complex formation | presence of a covalent complex | Essentially no covalent complex formation |  |
| 8.6 | 410 | < 100 nM | < 100 nM | > 500 nM | Nc1ncccc1-c1nc2ccc(-c3ccccc3)nc2n1-c1ccc(CC(=O)NCc2ccc(C=O)c(O)c2)cc1 [Compound 58, 2-{4-[2-(2-aminopyridin-3-yl)-5-phenylimidazo[4,5-b]pyridin-3-yl]phenyl}-N-[(4-formyl-3-hydroxyphenyl)methyl]acetamide] | significant presence of a covalent complex | Essentially no covalent complex formation | presence of a covalent complex | Essentially no covalent complex formation |  |
| 1.7 | 18 | < 100 nM | < 100 nM | < 100 nM | Nc1ncccc1-c1nc2ccc(-c3ccccc3)nc2n1-c1ccc(CCNCc2ccc(C=O)c(O)c2)cc1 [Compound 72, 4-{[(2-{4-[2-(2-aminopyridin-3-yl)-5-phenylimidazo[4,5-b]pyridin-3-yl]phenyl}ethyl)amino]methyl}-2-hydroxybenzaldehyde] | significant presence of a covalent complex | significantly smaller level of covalent complex formation | significant presence of a covalent complex | Essentially no covalent complex formation |  |
| 1.7 | 3.7 | 100 to 500 nM | 100 to 500 nM | > 500 nM | Nc1ncccc1-c1nc2ccc(-c3ccccc3)nc2n1-c1ccc(CNC(=O)Cc2ccc(C=O)c(O)n2)cc1 [Compound 75, N-(4-(2-(2-aminopyridin-3-yl)-5-phenyl-3H-imidazo[4,5-b]pyridin-3-yl)benzyl)-2-(5-formyl-6-hydroxypyridin-2-yl)acetamide] | only peaks corresponding to unmodified WT/mutant protein |  | only peaks corresponding to unmodified WT/mutant protein |  |  |
| 4.8 | 270 | < 100 nM | < 100 nM | > 500 nM | CC(C)c1ccc2nc(-c3cccnc3N)n(-c3ccc(CNC(=O)Cc4ccc(C=O)c(O)c4)cc3)c2n1 [Example 23, N-({4-[2-(2-aminopyridin-3-yl)-5-isopropylimidazo[4,5-b]pyridin-3-yl]phenyl}methyl)-2-(4-formyl-3-hydroxyphenyl)acetamide] |  |  |  |  |  |
